Consider 1 molecule from ChEMBL document CHEMBL5247617, “4-Arylthiosemicarbazide derivatives - Pharmacokinetics, toxicity and anti-Toxoplasma gondii activity in vivo” (Eur J Med Chem, 2022).

Data set [1] in a line: Toxicity in BALB/c mouse assessed as changes in liver weight at 20 mg/kg, po administered for 5 days and measured after 14 days. Format: organism-based. The conditions noted are these: in vivo, 120 h, time 5 day.
In data set [2] the test system is Toxoplasma gondii. The experiment in a line: Antiparasitic activity against Toxoplasma gondii DX infected in C3H/HeOuJ mouse assessed as prolongation of survival at 20 mg/kg, po administered every 24 hrs for 5 days starting from 24 hrs post infection by Kaplan-Meier method. The data set is classed as functional, organism-based. Particulars: time 5.0 day.
The subject of data set [3] is Toxoplasma gondii. Put plainly: Antiparasitic activity against Toxoplasma gondii RH infected in BALB/c mouse assessed as reduction in number of bradyzoite gene copies in muscles at 20 mg/kg, po administered every 24 hrs for 5 days starting from 24 hrs post infection by real-time qPCR analysis. The data set is classed as functional. The conditions noted are these: time 5 day.

Data set [4] can be described thus: Toxicity in BALB/c mouse assessed as disseminated necrosis of hepatocytes at 20 mg/kg, po administered for 5 days and measured after 1 day by hematoxylin-eosin staining based microscopic analysis. The data set is classed as organism-based. The conditions noted are these: in vivo, 120 h, time 5 day.
Data set [5] is described as follows: Toxicity in BALB/c mouse assessed as increase in creatinine level at 20 mg/kg, po administered for 5 days and measured after 1 day by colorimetric assay. Format: organism-based. The conditions noted are these: in vivo, 120 h, time 5 day.
Data set [6] can be described thus: Toxicity in BALB/c mouse assessed as increase in serum ALT level at 20 mg/kg, po administered for 5 days and measured on day 1 and day 14 by ELISA method. Format: organism-based. The conditions noted are these: in vivo, 120 h, time 5 day. A general note: In an ELISA, binding on a coated surface is turned into a signal by an enzyme label.
The nature of data set [7]: Toxicity in BALB/c mouse assessed as hydropic degeneration at 20 mg/kg, po administered for 5 days and measured after 1 day by hematoxylin-eosin staining based microscopic analysis. The data set is classed as organism-based. Particulars: in vivo, 120 h, time 5 day.
Data set [8] is described as follows: Toxicity in BALB/c mouse assessed as increase in creatinine level at 20 mg/kg, po administered for 5 days and measured after 14 days by colorimetric assay. Format: organism-based. The conditions noted are these: in vivo, 120 h, time 5 day.
For data set [9], the system named is Toxoplasma gondii. Put plainly: Antiparasitic activity against Toxoplasma gondii RH infected in BALB/c mouse assessed as decrease in IFNgamma level in serum at 20 mg/kg, po administered every 24 hrs for 5 days starting from 24 hrs post infection by ELISA method. Format: functional, organism-based. The conditions noted are these: time 5.0 day.
The test system of data set [10] is Toxoplasma gondii. Put plainly: Antiparasitic activity against Toxoplasma gondii RH infected in BALB/c mouse assessed as reduction of daughter tachyzoites in blood at 20 mg/kg, po administered every 24 hrs for 5 days starting from 24 hrs post infection by real-time qPCR analysis. Format: functional, organism-based. Particulars: time 5.0 day. Background: Real-time PCR tracks product formation cycle by cycle.

Data set [11] deals with Toxoplasma gondii. The experiment in a line: Antiparasitic activity against Toxoplasma gondii RH infected in BALB/c mouse assessed as prolongation of animal survival at 20 mg/kg, po administered every 24 hrs for 5 days starting from 24 hrs post infection by Kaplan-Meier method. The conditions noted are these: time 5.0 day. Format: functional, organism-based.
Data set [12] is described as follows: Toxicity in BALB/c mouse assessed as increase in liver weight at 20 mg/kg, po administered for 5 days and measured after 1 day. The data set is classed as organism-based. The conditions noted are these: in vivo, 120 h, time 5 day.
Data set [13] is described as follows: Toxicity in BALB/c mouse assessed as changes in size of hepatocyte nuclei at 20 mg/kg, po administered for 5 days and measured after 1 day by hematoxylin-eosin staining based microscopic analysis. The data set is classed as organism-based. The conditions noted are these: hepatocytes, 120 h, time 5 day.
Data set [14] has as its system Toxoplasma gondii. The experiment in a line: Antiparasitic activity against Toxoplasma gondii RH infected in BALB/c mouse assessed as reduction of bradyzoite gene copies in brain at 20 mg/kg, po administered every 24 hrs for 5 days starting from 24 hrs post infection by real-time qPCR analysis. The conditions noted are these: time 5.0 day. The data set is classed as functional, organism-based.

Data set [15] can be described thus: Toxicity in BALB/c mouse assessed as increase in serum AST level at 20 mg/kg, po administered for 5 days and measured on day 1 and day 14 by ELISA method. The data set is classed as organism-based. The conditions noted are these: in vivo, 120 h, time 5 day.

Activity calls are given as the source filed them. No cut-off for these calls is given here.

On to `CCc1nc(N)nc(N)c1-c1ccc(Cl)cc1` [PYRIMETHAMINE], for which the Activity entry was “Non-Toxic” in data set [1]; 14 in data set [3]; “Toxic” in [4]; “Toxic” in data set [5]; “Toxic” in [6]; “Toxic” in data set [7]. Also, the Activity result in [8], in [12], in data set [13] and in data set [15] was “Toxic” in each case. Further, the result in [2], in data set [9], in [10], in data set [11] and in data set [14] was Active.
